Molecules are shown by their SMILES.

The melting point is the temperature, or range, at which the solid turns liquid. In the case of `O=C(N[C@H](Cc1cccc(C=C(F)C(F)F)c1)[C@@H](O)c1ccc(F)cc1)c1ccc(F)c2ccccc12` (racemic) [Example 336, 4-fluoro-N-[(1RS,2SR)-2-(4-fluorophenyl)-2-hydroxy-1-[3-(2,3,3-trifluoro-1-propenyl)benzyl]ethyl]naphthalene-1-carboxamide], the melting point lay in the range of 184 to 185 °C.
`CC1(C)CC=Cc2c(cccc2C(=O)N[C@H](Cc2cccc(OC(F)(F)C(F)F)c2)[C@@H](O)c2ccc(F)cc2)C1` (racemic) [Example 288, N-[(1RS,2SR)-2-(4-fluorophenyl)-2-hydroxy-1-[3-(1,1,2,2-tetrafluoroethoxy)benzyl]ethyl]-6,6-dimethyl-6,7-dihydro-5H-benzo[a]cycloheptene-1-carboxamide] displayed a melting point of 115 to 116 °C.
To `O=C(N[C@H](Cc1cccc(OC(F)(F)C(F)F)c1)[C@@H](O)c1ccc(F)cc1)c1cccc2c(F)cccc12` (racemic) [Example 334, 5-fluoro-N-[(1RS,2SR)-2-(4-fluorophenyl)-2-hydroxy-1-[3-(1,1,2,2-tetrafluoroethoxy)benzyl]ethyl]naphthalene-1-carboxamide] belongs 178 to 180 °C; to `O=C(N[C@H](Cc1cccc(OC(F)(F)C(F)F)c1)[C@@H](O)c1cccc(Cl)c1)c1cccc2c1C=CCCC2` (racemic) [Example 237, N-{(1RS,2SR)-2-(3-chlorophenyl)-2-hydroxy-1-[3-(1,1,2,2-tetrafluoroethoxy)benzyl]ethyl}-6,7-dihydro-5H-benzo[a][7]annulene-1-carboxamide], 160 to 161 °C.
To `O=C(N[C@H](Cc1ccc2c(c1)OC(F)(F)C(F)(F)O2)[C@@H](O)c1ccc(F)cc1)c1cccc2c1C=CCCC2` (racemic) [Example 270, N-{(1RS,2SR)-2-(4-fluorophenyl)-2-hydroxy-1-[(2,2,3,3-tetrafluoro-2,3-dihydro-1,4-benzodioxin-6-yl)methyl]ethyl}-6,7-dihydro-5H-benzo[a][7]annulene-1-carboxamide] belongs 184 to 185 °C.
To `O=Cc1ccc(-c2ccc([C@H](O)[C@@H](Cc3cccc(OC(F)(F)C(F)F)c3)NC(=O)c3cccc4c3C=CCCC4)cc2)cc1` (racemic) [Example 299, N-[(1RS,2SR)-2-(4′-formyl[1,1′-biphenyl]-4-yl)-2-hydroxy-1-[3-(1,1,2,2-tetrafluoroethoxy)benzyl]ethyl]-6,7-dihydro-5H-benzo[a]cycloheptene-1-carboxamide] belongs 174 to 176 °C.
`O=C(N[C@H](Cc1cccc(C(=O)C(F)(F)C(F)F)c1)[C@@H](O)c1ccc(F)cc1)c1cccc2c(Cl)cccc12` (racemic) [Example 350, 5-chloro-N-[(1RS,2SR)-2-(4-fluorophenyl)-2-hydroxy-1-[3-(2,2,3,3-tetrafluoropropionyl)benzyl]ethyl]naphthalene-1-carboxamide]: the melting point lay within 154 to 155 °C.
The result for `O=C(O)c1ccc([C@@H](O)[C@H](Cc2cccc(OC(F)(F)C(F)F)c2)NC(=O)c2cccc3c2C=CCCC3)cc1` (racemic) [Example 310, 4-[(1RS,2SR)-2-[(6,7-dihydro-5H-benzo[a]cyclohepten-1-ylcarbonyl)amino]-1-hydroxy-3-[3-(1,1,2,2-tetrafluoroethoxy)phenyl]propyl]benzoic acid] reads 210 to 211 °C.
In turn, `CC(C)c1cccc(C[C@@H](NC(=O)c2cccc3c2C=CCCC3)[C@@H](O)c2ccc(F)cc2)c1` (racemic) [Example 323, N-[(1RS,2SR)-2-(4-fluorophenyl)-2-hydroxy-1-(3-isopropylbenzyl)ethyl]-6,7-dihydro-5H-benzo[a]cycloheptene-1-carboxamide] registered a melting point of 165 to 167 °C.

Source of the values: patent US6982348B2, “Aminoethanol derivatives” (Takeda Pharmaceutical Company Limited, priority 2001, dated 2006).
